Source: PMC10196118, “Evidence for broad cross-reactivity of the SARS-CoV-2 NSP12-directed CD4^+ T-cell response with pre-primed responses directed against common cold coronaviruses” (Frontiers in Immunology, 2023)

Test system: pre-cultured PBMCs (NSP12-specific T cells)
Assay: IFN-γ ELISpot with single 15-mer peptides after 11–13 days in vitro peptide-pool T-cell expansion
Assay type: cell-based, human
Conditions: for peptide-specific response, donor HH-N12-18, post COVID-19 / peptide-specific response, donor HH-N12-34, post COVID-19 / peptide-specific response, donor HH-N12-35, post COVID-19 / peptide-specific response, donor HH-N12-36, post COVID-19 / peptide-specific response, donor HH-N12-37, post COVID-19 / peptide-specific T-cell response, donor HH-N12-18, post COVID-19 / peptide-specific T-cell response, donor HH-N12-34, post COVID-19 / peptide-specific T-cell response, donor HH-N12-35, post COVID-19 / peptide-specific T-cell response, donor HH-N12-36, post COVID-19 / peptide-specific T-cell response, donor HH-N12-37, post COVID-19: sample post COVID-19; for peptide-specific response, donor HH-N12-18, post COVID-19 / peptide-specific response, donor HH-N12-18, pre COVID-19 / peptide-specific response, donor HH-N12-34, post COVID-19 / peptide-specific response, donor HH-N12-34, pre COVID-19 / peptide-specific response, donor HH-N12-35, post COVID-19 / peptide-specific response, donor HH-N12-35, pre COVID-19 / peptide-specific response, donor HH-N12-36, post COVID-19 / peptide-specific response, donor HH-N12-36, pre COVID-19 / peptide-specific response, donor HH-N12-37, post COVID-19 / peptide-specific response, donor HH-N12-37, pre COVID-19: single NSP12 15-mer peptides; for peptide-specific response, donor HH-N12-18, pre COVID-19 / peptide-specific response, donor HH-N12-34, pre COVID-19 / peptide-specific response, donor HH-N12-35, pre COVID-19 / peptide-specific response, donor HH-N12-36, pre COVID-19 / peptide-specific response, donor HH-N12-37, pre COVID-19 / peptide-specific T-cell response, donor HH-N12-18, pre COVID-19 / peptide-specific T-cell response, donor HH-N12-34, pre COVID-19 / peptide-specific T-cell response, donor HH-N12-35, pre COVID-19 / peptide-specific T-cell response, donor HH-N12-36, pre COVID-19 / peptide-specific T-cell response, donor HH-N12-37, pre COVID-19: sample pre COVID-19; for peptide-specific T-cell response, donor HH-N12-18, post COVID-19 / peptide-specific T-cell response, donor HH-N12-18, pre COVID-19 / peptide-specific T-cell response, donor HH-N12-34, post COVID-19 / peptide-specific T-cell response, donor HH-N12-34, pre COVID-19 / peptide-specific T-cell response, donor HH-N12-35, post COVID-19 / peptide-specific T-cell response, donor HH-N12-35, pre COVID-19 / peptide-specific T-cell response, donor HH-N12-36, post COVID-19 / peptide-specific T-cell response, donor HH-N12-36, pre COVID-19 / peptide-specific T-cell response, donor HH-N12-37, post COVID-19 / peptide-specific T-cell response, donor HH-N12-37, pre COVID-19: single NSP12 15-mer peptide, 0 = no response

Sequence	peptide-specific response, donor HH-N12-18, post COVID-19	peptide-specific response, donor HH-N12-18, pre COVID-19	peptide-specific response, donor HH-N12-34, post COVID-19	peptide-specific response, donor HH-N12-34, pre COVID-19	peptide-specific response, donor HH-N12-35, post COVID-19	peptide-specific response, donor HH-N12-35, pre COVID-19	peptide-specific response, donor HH-N12-36, post COVID-19	peptide-specific response, donor HH-N12-36, pre COVID-19	peptide-specific response, donor HH-N12-37, post COVID-19	peptide-specific response, donor HH-N12-37, pre COVID-19	peptide-specific T-cell response, donor HH-N12-18, post COVID-19	peptide-specific T-cell response, donor HH-N12-18, pre COVID-19	peptide-specific T-cell response, donor HH-N12-34, post COVID-19	peptide-specific T-cell response, donor HH-N12-34, pre COVID-19	peptide-specific T-cell response, donor HH-N12-35, post COVID-19	peptide-specific T-cell response, donor HH-N12-35, pre COVID-19	peptide-specific T-cell response, donor HH-N12-36, post COVID-19	peptide-specific T-cell response, donor HH-N12-36, pre COVID-19	peptide-specific T-cell response, donor HH-N12-37, post COVID-19	peptide-specific T-cell response, donor HH-N12-37, pre COVID-19
TEERLKLFDRYFKYW [compound 56]	0	0	0	0	0	0.04	0.022	0	0	0	–	–	–	–	–	–	–	–	–	–
LKYDFTEERLKLFDR [compound 55]	0	0	0	0	0	0	0	0	0	0	–	–	–	–	–	–	–	–	–	–
NFKSVLYYQNNVFMS [compound 157]	–	–	–	–	–	–	–	–	–	–	0.3	0	0	0	0	0	0	0	0	0
LLKTVQFCDAMRNAG [compound 38]	0	0	0	0	0	0	0	0	0	0	–	–	–	–	–	–	–	–	–	–
WYDFGDFIQTTPGSG [compound 44]	0	0	0	0	0	0	0	0	0	0.05	–	–	–	–	–	–	–	–	–	–
VVKRHTFSNYQHEET [compound 15]	0	0	0	0	0	0	0	0	0	0	–	–	–	–	–	–	–	–	–	–
TFSNYQHEETIYNLL [compound 16]	0	0	0	0	0	0	0	0	0	0	–	–	–	–	–	–	–	–	–	–
YFKYWDQTYHPNCVN [compound 58]	0	0	0	0	0	0	0	0.041	0	0.11	–	–	–	–	–	–	–	–	–	–
HVDTDLTKPYIKWDL [compound 52]	0	0	0	0	0	0	0	0	0.022	0	–	–	–	–	–	–	–	–	–	–
VASIKNFKSVLYYQN [compound 156]	–	–	–	–	–	–	–	–	–	–	0	0	0.025	0	0	0	0	0	0	0
FFKFRIDGDMVPHIS [compound 21]	0	0	0	0	0	0	0	0	0	0	–	–	–	–	–	–	–	–	–	–
YSDVENPHLMGWDYP [compound 122]	0	0	0	0	0	0	0	0	0	0	–	–	–	–	–	–	–	–	–	–
LYRNRDVDTDFVNEF [compound 147]	0	0	0	0	0	0	0	0	0	0	–	–	–	–	–	–	–	–	–	–
QHEETIYNLLKDCPA [compound 17]	0	0	0	0	0	0	0	0	0.021	0	–	–	–	–	–	–	–	–	–	–
